Source: patent US6737383B1, “Herbicidal oxadiazolidines” (priority 1999, dated 2004)

What was measured:
giant foxtail = assay: Test B pre/postemergence giant foxtail; assay type: in vivo, Setaria faberii
How it was run: (§1)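 Herbicidal effect was estimated by eye on a ten-point control scale after plants spent twelve to sixteen days in a greenhouse following soil or foliar treatment. Foliar sprays targeted plants at one to four leaves; all doses were formulated in a non-phytotoxic solvent with surfactant.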

soybean = assay: Test B pre/postemergence soybean; assay type: in vivo, Glycine max
How it was run: as §1

surinam grass = assay: Test B pre/postemergence surinam grass; assay type: in vivo, Brachiaria decumbens
How it was run: as §1

cocklebur = assay: Test B pre/postemergence cocklebur; assay type: in vivo, Xanthium strumarium
How it was run: as §1

sugar beet = assay: Test B pre/postemergence sugar beet; assay type: in vivo, Beta vulgaris
How it was run: as §1

rape = assay: Test B pre/postemergence rape; assay type: in vivo, Brassica napus
How it was run: as §1

blackgrass = assay: Test B pre/postemergence blackgrass; assay type: in vivo, Alopecurus myosuroides
How it was run: as §1

wheat = assay: Test B pre/postemergence wheat; assay type: in vivo, Triticum aestivum
How it was run: as §1

crabgrass = assay: Test B pre/postemergence crabgrass; assay type: in vivo, Digitaria sanguinalis
How it was run: as §1

smallflower flatsedge = assay: Test B flood test smallflower flatsedge; assay type: in vivo, Cyperus difformis
How it was run: (§2)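 Flood test on plants grown to the 2-leaf stage; treated plants kept in greenhouse twelve to sixteen days, then visually rated against controls on a 0 (no effect) to 10 (complete control) scale.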

bamyardgrass = assay: Test B flood test barnyardgrass; assay type: in vivo, Echinochloa crus-galli
How it was run: as §2

rice = assay: Test B flood test rice; assay type: in vivo, Oryza sativa
How it was run: as §2

duck salad = assay: Test B flood test duck salad; assay type: in vivo, Heteranthera limosa
How it was run: as §2

purple nutsedge = assay: Test B pre/postemergence purple nutsedge; assay type: in vivo, Cyperus rotundus
How it was run: as §1

corn = assay: Test B pre/postemergence corn; assay type: in vivo, Zea mays
How it was run: as §1

pigweed = assay: Test B pre/postemergence pigweed; assay type: in vivo, Amaranthus retroflexus
How it was run: as §1

[1] = Postemergence, Rate 62 g/ha, scale 0 to 10, 0 is no effect, 10 is complete control
[2] = Postemergence, Rate 250 g/ha, scale 0 to 10, 0 no effect, 10 complete control
[3] = Preemergence, Rate 31 g/ha, visual rating, scale 0 to 10 (0 no effect, 10 complete control)
[4] = Preemergence, Rate 62 g/ha, scale 0 to 10, 0 is no effect, 10 is complete control
[5] = Preemergence, Rate 125 g/ha, scale 0 to 10 (0 no effect, 10 complete control)
[6] = Preemergence, Rate 250 g/ha, scale of 0 to 10 where 0 is no effect and 10 is complete control
[7] = Rate 31 g/ha, Postemergence, scale 0 to 10
[8] = Rate 125 g/ha, Postemergence, scale 0 to 10, 0 no effect, 10 complete control
[9] = Rate 125 g/ha, Postemergence section (flood test species), scale 0 to 10, 0 no effect, 10 complete control
[10] = flood test, listed under Postemergence, Rate 250 g/ha, scale 0 to 10, 0 no effect, 10 complete control
[11] = Rate 500 g/ha, Postemergence section of Table B, 0 to 10 scale (0 no effect, 10 complete control)

## CCN(C(=O)n1oc(=O)n(-c2ccccc2OC)c1=O)C1CCCCC1 [Compound 29]
Giant foxtail; [1]
  Giant foxtail plant response rating: 0
Giant foxtail; [2]
  Giant foxtail plant response rating: 0
Giant foxtail; [3]
  Giant foxtail plant response rating: 0
Giant foxtail; [4]
  Plant response rating, Giant foxtail: 0
Giant foxtail; [5]
  Plant response rating, Giant foxtail: 1
Giant foxtail; [6]
  Plant response rating, Giant foxtail: 3
Giant foxtail; [7]
  Giant foxtail plant response rating: 0
Giant foxtail; [8]
  Giant foxtail plant response rating: 0
soybean; [1]
  Soybean plant response rating: 2
soybean; [2]
  Soybean plant response rating: 2
soybean; [3]
  Soybean plant response rating: 0
soybean; [4]
  Plant response rating, Soybean: 0
soybean; [5]
  Plant response rating, Soybean: 0
soybean; [6]
  Plant response rating, Soybean: 0
soybean; [8]
  Soybean plant response rating: 2
Surinam grass; [1]
  B. signalgrass plant response rating: 0
Surinam grass; [2]
  B. signalgrass plant response rating: 0
Surinam grass; [3]
  B. signalgrass plant response rating: 0
Surinam grass; [4]
  Plant response rating, B. signalgrass: 0
Surinam grass; [5]
  Plant response rating, B. signalgrass: 0
Surinam grass; [6]
  Plant response rating, B. signalgrass: 0
Surinam grass; [7]
  B. signalgrass plant response rating: 0
Surinam grass; [8]
  B. signalgrass plant response rating: 0
cocklebur; [1]
  Cocklebur plant response rating: 0
cocklebur; [2]
  Cocklebur plant response rating: 0
cocklebur; [3]
  Cocklebur plant response rating: 0
cocklebur; [4]
  Plant response rating, Cocklebur: 0
cocklebur; [5]
  Plant response rating, Cocklebur: 0
cocklebur; [6]
  Plant response rating, Cocklebur: 0
cocklebur; [7]
  Cocklebur plant response rating: 0
cocklebur; [8]
  Cocklebur plant response rating: 0
Sugar beet; [1]
  Sugarbeets plant response rating: 0
Sugar beet; [2]
  Sugarbeets plant response rating: 0
Sugar beet; [3]
  Sugarbeets plant response rating: 0
Sugar beet; [4]
  Plant response rating, Sugarbeets: 0
Sugar beet; [5]
  Plant response rating, Sugarbeets: 0
Sugar beet; [6]
  Plant response rating, Sugarbeets: 0
Sugar beet; [8]
  Sugarbeets plant response rating: 0
rape; [1]
  Rape plant response rating: 0
rape; [2]
  Rape plant response rating: 0
rape; [3]
  Rape plant response rating: 0
rape; [4]
  Plant response rating, Rape: 0
rape; [5]
  Plant response rating, Rape: 0
rape; [6]
  Plant response rating, Rape: 0
rape; [7]
  Rape plant response rating: 0
rape; [8]
  Rape plant response rating: 0
blackgrass; [1]
  Blackgrass plant response rating: 0
blackgrass; [2]
  Blackgrass plant response rating: 0
blackgrass; [3]
  Blackgrass plant response rating: 0
blackgrass; [4]
  Plant response rating, Blackgrass: 0
blackgrass; [5]
  Plant response rating, Blackgrass: 0
blackgrass; [6]
  Plant response rating, Blackgrass: 2
blackgrass; [7]
  Blackgrass plant response rating: 0
blackgrass; [8]
  Blackgrass plant response rating: 0
wheat; [1]
  Wheat plant response rating: 0
wheat; [2]
  Wheat plant response rating: 0
wheat; [3]
  Wheat plant response rating: 0
wheat; [4]
  Plant response rating, Wheat: 0
wheat; [5]
  Plant response rating, Wheat: 0
wheat; [6]
  Plant response rating, Wheat: 0
wheat; [8]
  Wheat plant response rating: 0
crabgrass; [1]
  Crabgrass plant response rating: 0
crabgrass; [2]
  Crabgrass plant response rating: 0
crabgrass; [3]
  Crabgrass plant response rating: 0
crabgrass; [4]
  Plant response rating, Crabgrass: 3
crabgrass; [5]
  Plant response rating, Crabgrass: 4
crabgrass; [6]
  Plant response rating, Crabgrass: 7
crabgrass; [7]
  Crabgrass plant response rating: 0
crabgrass; [8]
  Crabgrass plant response rating: 0
Smallflower flatsedge; [1]
  S. Flatsedge plant response rating: 0
Smallflower flatsedge; [9]
  S. Flatsedge plant response rating: 0
Smallflower flatsedge; [10]
  S. Flatsedge plant response rating: 0
bamyardgrass; [1]
  Barnyardgrass plant response rating: 0
bamyardgrass; [9]
  Barnyardgrass plant response rating: 0
bamyardgrass; [11]
  Barnyardgrass plant response rating: 0
bamyardgrass; [10]
  Barnyardgrass plant response rating: 0
rice; [1]
  Rice plant response rating: 0
rice; [9]
  Rice plant response rating: 0
rice; [11]
  Rice plant response rating: 0
rice; [10]
  Rice plant response rating: 0
Duck salad; [1]
  Ducksalad plant response rating: 0
Duck salad; [9]
  Ducksalad plant response rating: 0
Duck salad; [11]
  Ducksalad plant response rating: 0
Duck salad; [10]
  Ducksalad plant response rating: 0
Purple nutsedge; [1]
  Nutsedge plant response rating: 0
Purple nutsedge; [2]
  Nutsedge plant response rating: 0
Purple nutsedge; [3]
  Nutsedge plant response rating: 0
Purple nutsedge; [4]
  Plant response rating, Nutsedge: 0
Purple nutsedge; [5]
  Plant response rating, Nutsedge: 0
Purple nutsedge; [6]
  Plant response rating, Nutsedge: 0
Purple nutsedge; [7]
  Nutsedge plant response rating: 0
Purple nutsedge; [8]
  Nutsedge plant response rating: 0
corn; [1]
  Corn plant response rating: 0
corn; [2]
  Corn plant response rating: 0
corn; [3]
  Corn plant response rating: 0
corn; [4]
  Plant response rating, Corn: 0
corn; [5]
  Plant response rating, Corn: 0
corn; [6]
  Plant response rating, Corn: 0
corn; [7]
  Corn plant response rating: 0
corn; [8]
  Corn plant response rating: 0
pigweed; [1]
  Redroot pigweed plant response rating: 0
pigweed; [2]
  Redroot pigweed plant response rating: 0
pigweed; [3]
  Redroot pigweed plant response rating: 0
pigweed; [4]
  Plant response rating, Redroot pigweed: 0
pigweed; [5]
  Plant response rating, Redroot pigweed: 0
pigweed; [6]
  Plant response rating, Redroot pigweed: 5
pigweed; [7]
  Redroot pigweed plant response rating: 0
pigweed; [8]
  Redroot pigweed plant response rating: 0
